Values joined by “and” are separate entries in the source; they are usually repeats but may differ in a detail not shown here. Equal values may be shown once. Read-outs that look alike come from different tables or passages of the source. Where a SMILES comes first, the peptide text is derived from it.

For data set [1], the target named is T1, bovine carbonic anhydrase (bCA) (Bos taurus, UniProt P00921).
T1 construct: from tissue; host or cells: bovine blood hemolysate (erythrocytes are inferred)
T1 sequence (P00921 whole entry): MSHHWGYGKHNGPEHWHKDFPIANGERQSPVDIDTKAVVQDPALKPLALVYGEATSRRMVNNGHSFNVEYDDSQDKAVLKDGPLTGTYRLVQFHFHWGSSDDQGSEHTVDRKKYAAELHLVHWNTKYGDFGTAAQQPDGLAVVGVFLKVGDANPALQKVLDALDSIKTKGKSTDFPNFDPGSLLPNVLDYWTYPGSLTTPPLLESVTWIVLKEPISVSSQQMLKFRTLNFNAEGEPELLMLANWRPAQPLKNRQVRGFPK
Nature of the data set: Inhibition of esterase activity (p-nitrophenyl acetate) of purified bCA. Type of data set: biochemical. Particulars: for IC50 / IC50 bCA: esterase activity method, saturated substrate concentration. The protocol:
(§1) The human erythrocyte carbonic anhydrase isozymes hCAI and hCAII were eluted with 50 mM Na2HPO4 ‐ 1 M NaCl, pH: 6.3, and 0.1 M CH3COONa ‐ 0.5 M NaClO4, pH: 5.6, respectively (flow rate: 20 mL/h, fraction volume: 5 mL). The bovine enzyme was eluted with 0.1 M CH3COONa ‐ 0.5 M NaClO4 (pH: 5.6) buffer system. The protein elution by affinity column chromatography was monitored by absorbance measurement at 280 nm.
(§2) Carbonic anhydrase activity was also assayed by following esterase activity according to the method defined by Verpoorte et al. with slight modification. The enzyme hydrolyzes the substrate, p‐nitrophenyl acetate, to p‐nitrophenol or p‐nitrophenolate. The change in absorbance was measured spectrophotometrically at room temperature for a period of 3 min. The reaction mixture contained 0.5 mL of 0.05 M Tris–SO4 buffer (pH: 7.4), 0.75 mL of p‐NPA (3 mM), 0.1 mL of distilled water, and 0.15 mL of the enzyme solution (final volume 1.5 mL). […] All measurements were performed as triplicates. The method was used to determine the inhibitory activities of the food additives studied.
(§3) To determine the effect of all samples on bCA, hCAI, and hCAII isoenzymes esterase activity at saturated substrate concentration, activity (%) ‐ inhibitor concentration [I] graphs were plotted.

Details of data set [2]: method as in Joint FAO/WHO Expert Committee on Food Additives. The settings on record: NL: not limited; ref Joint FAO/WHO Expert Committee on Food Additives; cited from earlier work.
Data set [3] concerns the target T2, hCAII isoenzyme purified from human erythrocytes (Homo sapiens, UniProt P00918).
T2 construct: […]; from tissue; host or cells: human erythrocytes
Nature of the data set: Inhibition of esterase activity (p-nitrophenyl acetate) of purified hCAII. In kind it is biochemical. The settings on record: esterase activity method, saturated substrate concentration. The protocol: as §1, §2, §3

Data set [4] addresses T3, hCAI isoenzyme purified from human erythrocytes (Homo sapiens, UniProt P00915).
T3 construct: hCAI isoenzyme purified from human erythrocytes; from tissue; host or cells: human erythrocytes
Nature of the data set: Inhibition of esterase activity (p-nitrophenyl acetate) of purified hCAI; IC50, Ki, inhibition type. In kind it is biochemical. The protocol: as §1, §2, §3
Lineweaver–Burk lines were drawn for each inhibitor concentration. In the graph equation, Ki values were calculated by using Vmax=V^I max(1 + [I]/Ki) formula for semi‐competitive and Noncompetitive inhibition.

Data set [5] has as its system hCAI. Particulars: read-out: IC50(hCAI); cited from earlier work.
Data set [6] deals with hCAII. The settings on record: read-out: IC50(hCAII); cited from earlier work.
For data set [7], the system named is hCAI. The arrangement: method as in PMID 27451209. The settings on record: in vitro; cited from earlier work.
Data set [8] deals with glandular stomach, colon and lungs of mice. Also on record: method as in PMID 20686341. The settings on record: cited from earlier work.
Data set [9] deals with hCAII. The settings on record: cited from earlier work.
Setting [10] is: esterase activity method, saturated substrate concentration, read-out: IC50 hCAI.

T3 sequence (P00915 whole entry): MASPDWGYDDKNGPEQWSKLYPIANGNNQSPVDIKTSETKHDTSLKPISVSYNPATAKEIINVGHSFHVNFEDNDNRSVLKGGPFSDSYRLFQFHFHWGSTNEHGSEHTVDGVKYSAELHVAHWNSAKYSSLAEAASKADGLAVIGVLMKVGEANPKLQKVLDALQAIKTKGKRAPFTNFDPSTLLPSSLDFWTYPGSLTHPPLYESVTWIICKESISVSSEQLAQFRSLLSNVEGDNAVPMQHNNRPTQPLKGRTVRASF

For `C/C=C/C=C/C(=O)O` [Sorbic Acid, Sorbic acid], the IC50 in data set [1] was 1801.4 ± 0.04 µM; in data set [3], 3475.1 ± 0.1 µM; in data set [4] (setting [10]), 4566.2 ± 0.06 µM. The “ADI (acceptable daily intake)” value in [2] is on record as 25 mg/kg.
As to `O=C([O-])C1=NN(c2ccc(S(=O)(=O)[O-])cc2)C(=O)C1N=Nc1ccc(S(=O)(=O)[O-])cc1.[Na+].[Na+].[Na+]` (centres unmarked) [Tartrazine], the IC50 is 659.67 ± 0.07 µM in data set [1], 621.83 ± 0.05 µM in data set [3] and 652.25 ± 0.05 µM in data set [4] (setting [10]). The “ADI (acceptable daily intake)” value in [2] was 7.5 mg/kg.
As to `COC(=O)[C@H](Cc1ccccc1)NC(=O)[C@@H](N)CC(=O)O` [Aspartame] (HELM PEPTIDE1{D.F.[CO[*:1]]}$$$$V2.0), the “IC50 bCA” value in data set [1] is “inactive”; in data set [1] (listed as aspartame), “no effect”. Besides, in data set [2], the “ADI (acceptable daily intake)” value is reported as 40 mg/kg. Besides, the values for the IC50 in [3] and in data set [4] (setting [10]) were 2935.8 ± 0.02 µM and 2816.9 ± 0.03 µM, respectively.
In the case of `O=C(O)c1ccccc1` [Benzoic Acid, Benzoic acid], the IC50 worked out at 1850.7 ± 0.05 µM in [1], 2988.8 ± 0.06 µM in [3] and 2784 ± 0.06 µM in data set [4] (setting [10]). In addition, the “ADI (acceptable daily intake)” value in data set [2] was 5 mg/kg.
On to `COc1cc(/C=C/C(=O)CC(=O)/C=C/c2ccc(O)c(OC)c2)ccc1O` [Curcumin], for which the IC50 in the data set on hCAI [5] was 5.63 µM; in the data set on hCAII [6], 4.81 µM.
`COc1cc(S(=O)(=O)[O-])c(C)cc1N=Nc1c(O)ccc2cc(S(=O)(=O)[O-])ccc12.[Na+].[Na+]` [Allura Red AC]: the IC50 in the data set with hCAI [7] was 565 µM; in [1] it was 762.12 ± 0.12 µM; in [3] it was 504.04 ± 0.02 µM; in data set [4] (setting [10]) it was 781.65 ± 0.06 µM. Besides, the “DNA damage in in vivo comet assay” value in data set [8] is recorded as “DNA damage”. Moreover, in data set [2], the “ADI (acceptable daily intake)” value was 7 mg/kg.
Turning to `CC1=CC(=O)NS(=O)(=O)O1` [Acesulfame K], the inhibition at 2000 µg/mL in data set [1] (at 2 mg/mL concentration) amounted to 13%. Besides, the IC50 in data set [1] is 2350.5 ± 0.1 µM. For the same compound, the “ADI (acceptable daily intake)” value in [2] is listed as 15 mg/kg.
With `O=S(=O)([O-])c1ccc2c(N=Nc3ccc(S(=O)(=O)[O-])c4ccccc34)c(O)c(S(=O)(=O)[O-])cc2c1.[Na+].[Na+].[Na+]` [Amaranth], the half-maximal inhibitory concentration (IC50) in data set [1] is 296.06 ± 0.06 µM; in data set [3] it was 603.11 ± 0.11 µM; in [4] (setting [10]) it was 496.04 ± 0.04 µM. For the same compound, the “ADI (acceptable daily intake)” value in [2] was 0.5 mg/kg.
Consider `O=S(=O)([O-])c1ccc(N=Nc2c(O)ccc3cc(S(=O)(=O)[O-])ccc23)cc1.[Na+].[Na+]` [Sunset Yellow FCF], for which the results for the IC50 in [1], in data set [3] and in data set [4] (setting [10]) were 680.82 ± 0.05 µM, 488.63 ± 0.07 µM and 350.05 ± 0.03 µM, respectively. The “ADI (acceptable daily intake)” value in data set [2] was 4 mg/kg.
As for `O=C1NS(=O)(=O)c2ccccc21` [Saccharin], the “inhibition against hCAII” value with hCAII [9] is “low micromolar inhibition”. Also, the “ADI (acceptable daily intake)” value in [2] is listed as 5 mg/kg. The IC50 in [4] (setting [10]) came out at 2049.1 ± 0.1 µM.
With `CC(=O)Nc1ccc(S(=O)(=O)[O-])c2cc(S(=O)(=O)[O-])c(N=Nc3ccc(N=Nc4ccc(S(=O)(=O)[O-])cc4)c4ccc(S(=O)(=O)[O-])cc34)c(O)c12.[Na+].[Na+].[Na+].[Na+]` [Brilliant Black BN], the IC50 in data set [1] worked out at 153.32 ± 0.04 µM; in data set [3] it was 502.45 ± 0.03 µM; in data set [4] (setting [10]), 91.14 ± 0.09 µM. Moreover, the “ADI (acceptable daily intake)” value in data set [2] was 1 mg/kg.
Take `O=C(O)CC(O)(CC(=O)O)C(=O)O` [Citric Acid]: the results for the 50% inhibitory concentration (IC50) in data set [1], in [3] and in [4] (setting [10]) were 616.9 ± 0.1 µM, 1241.9 ± 0.07 µM and 1799.4 ± 0.03 µM, respectively.
`CCN(Cc1cccc(S(=O)(=O)[O-])c1)c1ccc(C(=C2C=CC(=[N+](CC)Cc3cccc(S(=O)(=O)[O-])c3)C=C2)c2ccccc2S(=O)(=O)[O-])cc1.[Na+].[Na+]` [Brilliant Blue FCF]: the IC50 was 136.26 ± 0.04 µM in data set [1], 364.3 ± 0.09 µM in data set [3] and 208.04 ± 0.03 µM in data set [4] (setting [10]). Moreover, the “ADI (acceptable daily intake)” value in data set [2] was 6 mg/kg.
`Cc1cc(C(C)(C)C)c(O)c(C(C)(C)C)c1` [Butylated Hydroxytoluene (BHT), Butylated hydroxytoluene (BHT)]: the values for the IC50 in data set [1], in [3] and in data set [4] (setting [10]) were 512.85 ± 0.05 µM, 104.29 ± 0.09 µM and 462.89 ± 0.1 µM, respectively. Also, in [2], the “ADI (acceptable daily intake)” value was 0.3 mg/kg.
Regarding `O=S(=O)([O-])c1cc(S(=O)(=O)[O-])c2c(N=Nc3ccc(S(=O)(=O)[O-])c4ccccc34)c(O)ccc2c1.[Na+].[Na+].[Na+]` [Ponceau 4R, Ponceau 4 R], the IC50 stood at 239.84 ± 0.04 µM in data set [1], 617.09 ± 0.01 µM in data set [3] and 678.27 ± 0.03 µM in [4] (setting [10]). In addition, the “ADI (acceptable daily intake)” value in [2] is reported as 0.7 mg/kg.
For `O=C([O-])c1ccccc1-c1c2cc(I)c(=O)c(I)c-2oc2c(I)c([O-])c(I)cc12.[Na+].[Na+]` [Erythrosine B], the 50% inhibitory concentration (IC50) in [1] is 11 µM and 10.8 µM; in data set [3] it was 5 µM and 5.22 µM; in [4] (Table 3, read-out: IC50 (hCAI esterase activity)), 19 µM; in data set [4] (setting [10]), 19.37 ± 0.04 µM. Further, the “ADI (acceptable daily intake)” value in data set [2] is on record as 0.1 mg/kg. In addition, the Type of inhibition result in data set [4] (Lineweaver–Burk) is “Noncompetitive”. For the same compound, the Ki in data set [4] ([I] 0.015 mM, Lineweaver–Burk, read-out: Ki values) came out at 2.9 µM; in data set [4] ([I] 0.019 mM, Lineweaver–Burk, read-out: Ki values), 1.7 µM; in [4] ([I] 0.023 mM, Lineweaver–Burk, read-out: Ki values) it was 3.9 µM; in data set [4] (three inhibitor concentrations, five substrate concentrations (0.15–0.75 mM), read-out: Average Ki), 2.8 µM.
`CCN(CC)c1ccc(C(=C2C=CC(=[N+](CC)CC)C=C2)c2cc(O)c(S(=O)(=O)[O-])cc2S(=O)(=O)[O-])cc1.CCN(CC)c1ccc(C(=C2C=CC(=[N+](CC)CC)C=C2)c2cc(O)c(S(=O)(=O)[O-])cc2S(=O)(=O)[O-])cc1.[Ca+2]` [Patent Blue V]: the IC50 came to 267.46 ± 0.09 µM in data set [1], 396.74 ± 0.03 µM in data set [3] and 316.98 ± 0.02 µM in data set [4] (setting [10]). In data set [2], the “ADI (acceptable daily intake)” value is 5 mg/kg.
In the case of `Cc1c(C(=O)O)c(O)cc2c1C(=O)c1c(O)c([C@@H]3O[C@H](CO)[C@@H](O)[C@H](O)[C@H]3O)c(O)c(O)c1C2=O` [Carminic Acid, Carminic acid], the IC50 in data set [1] was 586.92 ± 0.01 µM; in data set [3], 581.07 ± 0.03 µM; in data set [4] (setting [10]), 684 µM. Moreover, the “ADI (acceptable daily intake)” value in [2] is on record as 2.5 mg/kg.
With `O=C1O[C@H]([C@@H](O)CO)C(O)=C1O` [Ascorbic Acid, Ascorbic acid], the IC50 came out at 993.67 ± 0.03 µM in data set [1], 2160.1 ± 0.07 µM in data set [3] and 1834.1 ± 0.1 µM in data set [4] (setting [10]).
As for `O=C1/C(=C2\Nc3ccc(S(=O)(=O)[O-])cc3C2=O)Nc2ccc(S(=O)(=O)[O-])cc21.[Na+].[Na+]` [Indigo Carmine], the IC50 was 141.59 ± 0.07 µM in data set [1], 242.03 ± 0.03 µM in [3] and 1018.6 ± 0.04 µM in data set [4] (setting [10]). Further, in data set [2], the “ADI (acceptable daily intake)” value is on record as 5 mg/kg.

The record behind these values is paper PMC12361874, “Common Food Additives Inhibit Carbonic Anhydrase Activity” (Journal of Biochemical and Molecular Toxicology, 2025).
